Assay results: PubChem BioAssay (NCI)
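Values below derive from 48-hour exposures of cells grown in 96-well plates, with endpoints linearly interpolated between the two concentrations bracketing the appropriate inhibition level. TGI: concentration producing complete growth inhibition.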

How the values were obtained:
Assay in all cases: NCI-60 cell line screen, 48 h
OVCAR-5 ovarian = tested on: OVCAR-5 ovarian
CAKI-1 renal = tested on: CAKI-1 renal
K-562 leukemia = tested on: K-562 leukemia
A549 NSCLC = tested on: A549 NSCLC
RPMI-8226 leukemia = tested on: RPMI-8226 leukemia
HCT-116 colon = tested on: HCT-116 colon
MCF7 breast = tested on: MCF7 breast
HOP-92 NSCLC = tested on: HOP-92 NSCLC
SK-MEL-5 melanoma = tested on: SK-MEL-5 melanoma
HCC-2998 colon = tested on: HCC-2998 colon
SR leukemia = tested on: SR leukemia
COLO 205 colon = tested on: COLO 205 colon
UACC-257 melanoma = tested on: UACC-257 melanoma
NCI-H522 lung = tested on: NCI-H522 lung
SNB-75 CNS = tested on: SNB-75 CNS
SN12C renal = tested on: SN12C renal
HS 578T breast = tested on: HS 578T breast
A498 renal = tested on: A498 renal
T-47D breast = tested on: T-47D breast

SMILES	TGI (OVCAR-5 ovarian) [µM]	TGI (CAKI-1 renal) [µM]	TGI (K-562 leukemia) [µM]	TGI (A549 NSCLC) [µM]	TGI (RPMI-8226 leukemia) [µM]	TGI (HCT-116 colon) [µM]	TGI (MCF7 breast) [µM]	TGI (HOP-92 NSCLC) [µM]	TGI (SK-MEL-5 melanoma) [µM]	TGI (HCC-2998 colon) [µM]	TGI (SR leukemia) [µM]	TGI (COLO 205 colon) [µM]	TGI (UACC-257 melanoma) [µM]	TGI (NCI-H522 lung) [µM]	TGI (SNB-75 CNS) [µM]	TGI (SN12C renal) [µM]	TGI (HS 578T breast) [µM]	TGI (A498 renal) [µM]	TGI (T-47D breast) [µM]
Nc1c(C(=O)c2ccccc2)nnc2ccccc12	> 100	> 100	> 100	> 100	> 100	71.6	62.6	48.7	32.7	54.4	> 100	36	90.8						
Cn1c(=O)n2n(c1=O)C(S(=O)c1ccccc1)C2 (stereo not given)	> 100	> 100	> 100	> 100	> 100	> 100	> 100	> 100	> 100	> 100	> 100	> 100	> 100	> 100	> 100	> 100	> 100		
O[C@]12c3ccccc3C1CCCCC2N1CCOCC1 (stereo not given in full)			> 100	> 100	> 100	> 100			> 100		> 100	> 100	> 100	> 100	> 100	> 100			
Cc1ccc(C=C(C(=O)O)C(=O)O)o1	> 100	> 100	> 100	> 100	> 100	> 100	> 100		> 100	> 100	> 100	> 100	> 100	> 100	> 100	> 100	> 100	> 100	
CCOP(=O)(/C=C\n1ccc(=O)[nH]c1=O)OCC	> 100	> 100	> 100	> 100	> 100	> 100	> 100		> 100			> 100	> 100	> 100	> 100	> 100		> 100	> 100
COc1cccc(-c2[nH]c3cc4c(cc3c(=O)c2C(=O)O)OCO4)c1	> 100	> 100	> 100	> 100	> 100	> 100	> 100	> 100	> 100	74.6	> 100	74.9	> 100		> 100	> 100		91.6	> 100
CCCCC1Cc2cc(OC)ccc2-c2n1c1cc(OC)ccc1[n+]2C (stereo not given) (tested in a mixture with another compound)	68.2	> 100	> 62.8	> 45.7	2.17	> 39.9	15.8	7.02	3.76	8.51	12.1	1.69	> 34.3	6.85	87.6	7.97		83.2	45.1
CCOc1cc2c(cc1O)CC[C@@H]1[C@@H]2CC[C@]2(C)[C@@H](O)CC[C@@H]12	98.2	52.9	6.24	48.1	7.86	6.63	56.4	29.6	2.48	5.51	1.02	33.5		0.0197		46.3	> 82.8	20	
CCOC(=O)C(C)(Cc1ccc(O)cn1)NC(=O)c1ccccc1 (stereo not given)	> 100	> 100	> 100	> 100	> 100	> 100		> 100	> 100	> 100	> 100	> 100	> 100	> 100	> 100		> 100		
COCCOCCOCCC(=O)NC1CC2CCC1(C)C2(C)C (stereo not given)	> 100	> 100	> 100	> 100	> 100	> 100	> 100		> 100	> 100	> 100	> 100	> 100		> 100	> 100	> 100	> 100	
COc1cccc2c1[C@H]1OC(=O)NC1CCCCC2 (stereo not given in full)	> 100	> 100	> 100	> 100	> 100	> 100			> 100	> 100		> 100	> 100	> 100	> 100	> 100		> 100	
C/C(CC(=O)Nc1cccc(Cl)c1C)=N\N=C(N)N	> 100	> 100	> 100	> 100	> 100	> 100		> 100	> 100	> 100		> 100	> 100	> 100	> 100	> 100		> 100	
O=C1NC2=NN=C(c3ccc(Br)cc3)CN2NC12c1ccccc1-c1ccccc12	> 100	> 100	> 100	> 100		> 100	> 100	> 100	> 100	> 100	> 100	> 100	> 100	> 100	> 100	> 100	> 100	> 100	
CSc1nc(C)cc(=O)n1C1OC(COC(C)=O)C(OC(C)=O)C(OC(C)=O)C1OC(C)=O (stereo not given)	> 100		> 100	> 100	> 100	> 100			> 100	> 100	> 100	> 100	> 100	> 100	> 100	> 100		> 100	
C1=C(c2ccccc2)C(OC2Oc3ccccc3C=C2c2ccccc2)Oc2ccccc21 (stereo not given)	> 100	> 100	> 100	> 100	> 100	> 100		> 100	> 100	> 100	> 100	> 100	> 100	> 100	> 100	> 100		> 100	
CCN(CC)C(=S)S	> 100		30.1		> 100	19.7		> 100	> 43.6	> 100		> 100	65.1	0.362		> 100		> 100	
Cc1cc(OC(=O)c2c(C)cc(OC(=O)c3c(C)cc(O)cc3O)cc2O)cc(O)c1C(=O)O	> 100	> 100	> 100	> 100	> 100			> 100	> 100	> 100		> 100	> 100	> 100	> 100	> 100		> 100	
FC(F)(F)c1cnc(N/N=C(/c2ccccc2)c2ccccn2)c(Cl)c1	31.5	19.6	> 100	14.8	> 100	12.1	6.7	23.2	21.2	24.8	55.3	20.6	11.5	4.74	16	> 100	26.9		
Nc1ncnc2c1ncn2CCOC(c1ccccc1)P(=O)(O)O (stereo not given)	> 100	> 100		> 100		> 100			> 100	> 100	> 100	> 100	> 100	> 100	> 100	> 100		> 100	
Nc1ncnc2sc(Nc3ccccc3)nc12	> 100	> 100	> 100	> 100	> 100			> 100		> 100	> 100	> 100	> 100	> 100	> 100	> 100			
O=C1c2ccccc2/C=C\C(c2ccccc2)=N/N1c1ccccc1Cl	> 100	54.5	> 100	60.5	80.5	> 100	63.9	78.4	26.3	> 100			90.5	35.8	97.8	> 100	> 100	71.9	
Cn1c(=O)c(C(=O)NC23CC4CC(CC(C4)C2)C3)c(O)c2ccccc21			> 100	> 100	> 100	57.9					> 100	> 100	> 100	> 100	83.8	54.8			
O=C(NN1C(=O)C(Cl)C1c1c(O)ccc2ccccc12)c1ccccc1O (stereo not given)			> 100	> 100		> 100			> 100				> 100	> 100	> 100	> 100		> 100	
